Data from patent US20230038360A1, “COMPOSITION FOR THE TREATMENT OF AMYLOID-BETA ASSOCIATED DISEASES” (BASF SE, priority 2019, published 2023).

Test system: C. elegans strain CL4176 expressing amyloid-beta peptide in muscle cells
Assay: Paralysis assay in transgenic C. elegans strain CL4176 expressing human Aβ1-42 peptide in muscle cells
Assay type: in vivo
Settings: 1 mg/ml sodium propionate in nematode growth medium; after 24 hours; Aβ1-42 expression induced by temperature control
Excerpt: The biological model C. elegans was used to study the effects of sodium propionate on amyloid-beta associated pathology. C. elegans has become an excellent and well recognized model for studying neurodegenerative diseases (Zhou et al., 2011; Hekimi et al., 2011; Kaletsky & Murphy, 2010). This nematode contains 302 neuron cells with neurotransmitters and neuropeptides similar to the mammalian nervous system. All the basic functions in the worm such as development, feeding and movement are controlled by the nervous system. The model is particularly useful for studying amyloid-beta associated pathologies, since transgenic strains have been generated able to express the human Aβ1-42 peptide in muscle cells, producing a progressive paralysis in the nematodes as a result of toxic effects (Link, 1995). Therefore, this model using such strains is useful to study substances in view of their ability to reduce β-amyloid peptide cell toxicity.
In the present experiment, the transgenic C. elegans strain CL4176 expressing amyloid-beta peptide in muscle cells was used. The worms were cultured in plates with nematode growth medium (control) or in plates supplemented with different concentrations of sodium propionate (test substance). The expression of Aβ1-42 peptide was induced in the nematodes by temperature control, and the percentage of worms paralyzed was determined at different time points. […]

Structure (SMILES): CCC(=O)[O-].[Na+] [sodium propionate]
- number of paralyzed C. elegans compared to the untreated Aβ1-42 peptide expressing C. elegans: significantly lower
